Here are results for 27 molecules from the Kinase Knowledgebase extract (Sharma et al. 2016).

This experiment deals with MAPK14 (human) (UniProt Q16539). Kind of experiment: Assessment of MAPK14 Kinase Activity.
Chain of MAPK14 (human) (Q16539 whole entry, looked up): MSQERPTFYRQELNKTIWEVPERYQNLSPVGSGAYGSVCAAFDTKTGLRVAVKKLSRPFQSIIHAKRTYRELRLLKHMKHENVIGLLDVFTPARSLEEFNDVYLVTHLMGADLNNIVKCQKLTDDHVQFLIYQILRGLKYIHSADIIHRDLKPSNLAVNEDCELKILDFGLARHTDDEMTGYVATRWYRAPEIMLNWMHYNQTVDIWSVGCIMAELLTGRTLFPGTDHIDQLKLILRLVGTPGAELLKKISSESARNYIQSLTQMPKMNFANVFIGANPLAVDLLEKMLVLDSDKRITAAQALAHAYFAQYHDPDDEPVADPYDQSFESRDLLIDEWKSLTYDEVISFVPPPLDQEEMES
Turning to `CCOC(=O)c1c(OCC(=O)NCc2cccc(Cl)c2)nn(-c2cc(C(=O)NC3CC3)ccc2C)c1N`, the concentration for half-maximal inhibition (IC50) (usually the concentration needed to halve the response being measured) was less than 1000 nM.
For the molecule `Cc1ccc(C(=O)NC2CC2)cc1-n1ncc(C(=O)NC2CCCCC2C)c1N` (configuration not stated), the IC50 is less than 1000 nM.
Then `Cc1ccc(C(=O)NC2CC2)cc1-n1ncc(C(=O)Nc2ccccc2)c1N`, with less than 1000 nM.
Then `CONC(=O)c1ccc(C)c(-n2ncc(C(=O)c3cccc(I)c3)c2N)c1`, with less than 1000 nM; and `Cc1ccc(C(=O)NC2CC2)cc1-n1ncc(C(=O)c2cccc(CO)c2)c1N`, with less than 1000 nM.
Then `Cc1ccc(C(=O)NC2CC2)cc1-n1ncc(C(=O)c2cccc(-c3nnco3)c2)c1N`, with less than 1000 nM.
The molecule `Cc1ccc(C(=O)NC2CC2)cc1-n1nc(OCCOCc2ccccc2)c(C(=O)c2ccccc2)c1N` came in with a 50% inhibitory concentration (IC50) of less than 1000 nM.
Then `Cc1ccc(C(=O)NC2CC2)cc1-n1cnc(C(=O)c2ccccn2)c1N`, with less than 1000 nM; and `Cc1ccc(C(=O)NC2CC2)cc1-n1ncc(C(=O)c2ccccc2)c1N`, with less than 1000 nM; and `Cc1ccc(C(=O)NC2CC2)cc1-n1cnc(C(=O)c2ccc3c(c2)OCO3)c1N`, with less than 1000 nM.
As to `Cc1ccc(C(=O)O)cc1-n1ncc(C(=O)c2cccc(I)c2)c1N`, the half-inhibitory concentration (IC50) was 1000 to 10000 nM.
The molecule `Cc1ccc(C(=O)NC2CC2)cc1-n1ncc(C(=O)c2cccc(I)c2)c1N` came in with an IC50 of less than 1000 nM.
`Cc1ccc(C(=O)NC2CC2)cc1-n1ncc(C(=O)c2cccc(C3OCCO3)c2)c1N` yielded an IC50 of less than 1000 nM.
Then `Cc1ccc(C(=O)NC2CC2)cc1-n1ncc(C(=O)c2cccc(C=O)c2)c1N`, with less than 1000 nM; and `Cc1ccc(-c2nnc[nH]2)cc1-n1ncc(C(=O)c2ccccc2)c1N`, with less than 1000 nM.
Molecule `CONC(=O)c1ccc(C)c(-n2ncc(C(=O)c3ccccc3)c2N)c1` yielded an IC50 of less than 1000 nM.
Then `Cc1ccc(C(=O)NC2CC2)cc1-n1nc(OC2CCN(C(=O)OC(C)(C)C)CC2)c(C(=O)c2ccccc2)c1N`, with less than 1000 nM; and `CCOC(=O)c1cnn(-c2cc(C(=O)NC3CC3)ccc2C)c1N`, with less than 1000 nM; and `COc1nn(-c2cc(C(=O)NC3CC3)ccc2C)c(N)c1C(=O)c1ccccc1`, with less than 1000 nM.
Then `Cc1ccc(C(=O)NC2CC2)cc1-n1ncc(C(=O)c2cccc(OCC(O)CO)c2)c1N` (configuration not stated), with less than 1000 nM; and `Cc1ccc(C(=O)O)cc1-n1ncc(C(=O)c2ccccc2)c1N`, with 1000 to 10000 nM.
Then `Cc1ccc(C(=O)NC2CC2)cc1-n1cnc(C(=O)C2CCCCC2)c1N`, with less than 1000 nM; and `CCOC(=O)c1c(C)nn(-c2cc(C(=O)NC3CC3)ccc2C)c1N`, with less than 1000 nM.
Take `Cc1ccc(C(=O)NC2CC2)cc1-n1ncc(C(=O)NC2CCc3ccccc32)c1N` (configuration not stated): the IC50 is less than 1000 nM.
`Cc1ccc(C(=O)NC2CC2)cc1-n1ncc(C(=O)NCC(C)(C)C)c1N` came in with a half-inhibitory concentration (IC50) of less than 1000 nM.
Take `Cc1ccc(C(=O)NC2CC2)cc1-n1cnc(C(=O)C2CCOCC2)c1N`: the IC50 was less than 1000 nM.
Then `Cc1ccc(C(=O)NC2CC2)cc1-n1ncc(C(=O)c2cccc(C#N)c2)c1N`, with less than 1000 nM.
